The source made the active and inactive calls. No rule for the calls is given here.
Test system: CCRIS mutagenicity, Ames/micronucleus/aberration tests
Assay: CCRIS mutagenicity studies
[1] = Test System: AMES SALMONELLA TYPHIMURIUM, Strain/Indicator: TA98, Metabolic Activation: NONE, Method: STANDARD PLATE
[2] = Test System: AMES SALMONELLA TYPHIMURIUM, Strain/Indicator: TA98, Metabolic Activation: RAT, LIVER, S-9, AROCLOR 1254, Method: PREINCUBATION
[3] = Test System: AMES SALMONELLA TYPHIMURIUM, Strain/Indicator: TA100, Metabolic Activation: NONE, Method: PREINCUBATION
[4] = Test System: AMES SALMONELLA TYPHIMURIUM, Strain/Indicator: TA100, Metabolic Activation: NONE, Method: STANDARD PLATE
[5] = Test System: AMES SALMONELLA TYPHIMURIUM, Strain/Indicator: TA100, Metabolic Activation: RAT, LIVER, S-9, AROCLOR 1254, Method: PREINCUBATION
[6] = Test System: AMES SALMONELLA TYPHIMURIUM, Strain/Indicator: TA98, Metabolic Activation: NONE, Method: PREINCUBATION
[7] = Test System: AMES SALMONELLA TYPHIMURIUM, Strain/Indicator: TA1535, Metabolic Activation: NONE, Method: PREINCUBATION
[8] = Test System: AMES SALMONELLA TYPHIMURIUM, Strain/Indicator: TA1537, Metabolic Activation: NONE, Method: PREINCUBATION

O=[N+]([O-])c1cc2c3ccccc3ccc2c2ccccc12
mutagenic call (Test System: AMES SALMONELLA TYPHIMURIUM, Strain/Indicator: TA98, Metabolic Activation: HAMSTER LIVER S-9, 6-NITROCHRYSENE, Method: PREINCUBATION): active; positive
mutagenic call (Test System: AMES SALMONELLA TYPHIMURIUM, Strain/Indicator: TA98, Metabolic Activation: HAMSTER LIVER S-9, Method: PREINCUBATION): active; positive
mutagenic call [1]: active; positive
mutagenic call [2]: active; positive
mutagenic call (Test System: AMES SALMONELLA TYPHIMURIUM, Strain/Indicator: TA98, Metabolic Activation: RAT, LIVER, S-9, AROCLOR 1254, Method: STANDARD PLATE): active; positive
mutagenic call (Test System: AMES SALMONELLA TYPHIMURIUM, Strain/Indicator: TA98, Metabolic Activation: RAT, LIVER, S-9, Method: PREINCUBATION): active; positive
mutagenic call (Test System: AMES SALMONELLA TYPHIMURIUM, Strain/Indicator: TA100, Metabolic Activation: HAMSTER LIVER S-9, 6-NITROCHRYSENE, Method: PREINCUBATION): active; positive
mutagenic call (Test System: AMES SALMONELLA TYPHIMURIUM, Strain/Indicator: TA100, Metabolic Activation: HAMSTER LIVER S-9, Method: PREINCUBATION): active; positive
mutagenic call [3]: active; positive
mutagenic call [4]: active; positive
mutagenic call [5]: active; positive
mutagenic call (Test System: AMES SALMONELLA TYPHIMURIUM, Strain/Indicator: TA100, Metabolic Activation: RAT, LIVER, S-9, AROCLOR 1254, Method: STANDARD PLATE): active; positive
mutagenic call (Test System: AMES SALMONELLA TYPHIMURIUM, Strain/Indicator: TA100, Metabolic Activation: RAT, LIVER, S-9, Method: PREINCUBATION): active; positive
mutagenic call (Test System: AMES SALMONELLA TYPHIMURIUM, Strain/Indicator: TA102, Metabolic Activation: HAMSTER LIVER S-9, 6-NITROCHRYSENE, Method: PREINCUBATION): active; positive
mutagenic call (Test System: AMES SALMONELLA TYPHIMURIUM, Strain/Indicator: TA102, Metabolic Activation: HAMSTER LIVER S-9, Method: PREINCUBATION): active; positive
mutagenic call (Test System: AMES SALMONELLA TYPHIMURIUM, Strain/Indicator: TA102, Metabolic Activation: NONE, Method: PREINCUBATION): inactive; negative
mutagenic call (Test System: CHINESE HAMSTER OVARY, Strain/Indicator: CHO-K1-BH4 (HGPRT)/6-THIOGUANINE, Metabolic Activation: NONE, Method: STANDARD PLATE): inactive; negative
mutagenic call (Test System: CHINESE HAMSTER OVARY, Strain/Indicator: CHO-K1-BH4 (HGPRT)/6-THIOGUANINE, Metabolic Activation: RAT, LIVER, S-9, AROCLOR 1254, Method: STANDARD PLATE): active; positive
mutagenic call (Test System: CHINESE HAMSTER OVARY, Strain/Indicator: CHO-UV5 (HGPRT)/6-THIOGUANINE, Metabolic Activation: NONE, Method: STANDARD PLATE): active; positive
mutagenic call (Test System: CHINESE HAMSTER OVARY, Strain/Indicator: CHO-UV5 (HGPRT)/6-THIOGUANINE, Metabolic Activation: RAT, LIVER, S-9, AROCLOR 1254, Method: STANDARD PLATE): active; positive

CCCCC1C(=O)N(c2ccccc2)N(c2ccccc2)C1=O
mutagenic call (End Point: IN VITRO CHROMOSOMAL ABERRATIONS, Test System: CHINESE HAMSTER OVARY CELLS, Metabolic Activation: NONE): inactive; negative
mutagenic call (End Point: IN VITRO CHROMOSOMAL ABERRATIONS, Test System: CHINESE HAMSTER OVARY CELLS, Metabolic Activation: RAT, LIVER, S-9, AROCLOR 1254): active; positive
mutagenic call (Test System: AMES SALMONELLA TYPHIMURIUM, Strain/Indicator: TA97A, Metabolic Activation: NONE, Method: STANDARD PLATE): inactive; negative
mutagenic call (Test System: AMES SALMONELLA TYPHIMURIUM, Strain/Indicator: TA97A, Metabolic Activation: RAT LIVER S-9, PHENOBARBITAL, Method: STANDARD PLATE): inactive; negative
mutagenic call (Test System: AMES SALMONELLA TYPHIMURIUM, Strain/Indicator: TA98, Metabolic Activation: HAMSTER, LIVER, S-9, AROCLOR 1254, Method: PREINCUBATION): inactive; negative
mutagenic call [6]: inactive; negative
mutagenic call [1]: inactive; negative
mutagenic call (Test System: AMES SALMONELLA TYPHIMURIUM, Strain/Indicator: TA98, Metabolic Activation: RAT LIVER S-9, PHENOBARBITAL, Method: STANDARD PLATE): inactive; negative
mutagenic call [2]: inactive; negative
mutagenic call (Test System: AMES SALMONELLA TYPHIMURIUM, Strain/Indicator: TA100, Metabolic Activation: HAMSTER, LIVER, S-9, AROCLOR 1254, Method: PREINCUBATION): inactive; negative
mutagenic call [3]: inactive; negative
mutagenic call [4]: inactive; negative
mutagenic call (Test System: AMES SALMONELLA TYPHIMURIUM, Strain/Indicator: TA100, Metabolic Activation: RAT LIVER S-9 PHENOBARBITAL, Method: STANDARD PLATE): inactive; negative
mutagenic call [5]: inactive; negative
mutagenic call (Test System: AMES SALMONELLA TYPHIMURIUM, Strain/Indicator: TA102, Metabolic Activation: NONE, Method: STANDARD PLATE): inactive; negative
mutagenic call (Test System: AMES SALMONELLA TYPHIMURIUM, Strain/Indicator: TA102, Metabolic Activation: RAT LIVER S-9, PHENOBARBITAL, Method: STANDARD PLATE): inactive; negative
mutagenic call (Test System: AMES SALMONELLA TYPHIMURIUM, Strain/Indicator: TA1535, Metabolic Activation: HAMSTER, LIVER, S-9, AROCLOR 1254, Method: PREINCUBATION): inactive; negative
mutagenic call [7]: inactive; negative
mutagenic call (Test System: AMES SALMONELLA TYPHIMURIUM, Strain/Indicator: TA1535, Metabolic Activation: RAT, LIVER, S-9, AROCLOR 1254, Method: PREINCUBATION): inactive; negative
mutagenic call (Test System: AMES SALMONELLA TYPHIMURIUM, Strain/Indicator: TA1537, Metabolic Activation: HAMSTER, LIVER, S-9, AROCLOR 1254, Method: PREINCUBATION): inactive; negative
mutagenic call [8]: inactive; negative
mutagenic call (Test System: AMES SALMONELLA TYPHIMURIUM, Strain/Indicator: TA1537, Metabolic Activation: RAT, LIVER, S-9, AROCLOR 1254, Method: PREINCUBATION): inactive; negative
mutagenic call (Test System: MOUSE LYMPHOMA, Strain/Indicator: L5178Y (TK+/TK-), Metabolic Activation: NONE, Method: SUSPENSION/PLATE): active; positive
mutagenic call (Test System: MOUSE LYMPHOMA, Strain/Indicator: L5178Y (TK+/TK-), Metabolic Activation: RAT, LIVER, S-9, AROCLOR 1254, Method: SUSPENSION/PLATE): active; positive

O=[N+]([O-])c1ccccc1O
mutagenic call (Test System: AMES SALMONELLA TYPHIMURIUM, Strain/Indicator: TA98, Metabolic Activation: HAMSTER, LIVER, S-9, AROCLOR 1254, FLAVIN MONONUCLEOTIDE, Method: PREINCUBATION): inactive; negative
mutagenic call [6]: inactive; negative
mutagenic call (Test System: AMES SALMONELLA TYPHIMURIUM, Strain/Indicator: TA98, Metabolic Activation: RAT, LIVER, S-9, KANECHLOR 500, Method: PREINCUBATION): inactive; negative
mutagenic call (Test System: AMES SALMONELLA TYPHIMURIUM, Strain/Indicator: TA98, Method: PREINCUBATION): inactive; negative
mutagenic call (Test System: AMES SALMONELLA TYPHIMURIUM, Strain/Indicator: TA100, Metabolic Activation: HAMSTER, LIVER, S-9, AROCLOR 1254, FLAVIN MONONUCLEOTIDE, Method: PREINCUBATION): inactive; negative
mutagenic call [3]: inactive; negative
mutagenic call (Test System: AMES SALMONELLA TYPHIMURIUM, Strain/Indicator: TA100, Metabolic Activation: RAT, LIVER, S-9, KANECHLOR 500, Method: PREINCUBATION): inactive; negative
mutagenic call (Test System: AMES SALMONELLA TYPHIMURIUM, Strain/Indicator: TA100, Method: PREINCUBATION): inactive; negative
mutagenic call [7]: inactive; negative
mutagenic call (Test System: AMES SALMONELLA TYPHIMURIUM, Strain/Indicator: TA1535, Method: PREINCUBATION): inactive; negative
mutagenic call [8]: inactive; negative
mutagenic call (Test System: AMES SALMONELLA TYPHIMURIUM, Strain/Indicator: TA1537, Method: PREINCUBATION): inactive; negative
mutagenic call (Test System: AMES SALMONELLA TYPHIMURIUM, Strain/Indicator: TA1538, Metabolic Activation: NONE, Method: PREINCUBATION): inactive; negative
mutagenic call (Test System: AMES SALMONELLA TYPHIMURIUM, Strain/Indicator: TA1538, Method: PREINCUBATION): inactive; negative
